Key:
[1] = target: [Pyruvate dehydrogenase (acetyl-transferring)] kinase isozyme 4, mitochondrial (Homo sapiens, UniProt Q16654); assay: PDK Inhibition Assay; conditions: pH 7.5; 25 °C
[2] = target: T1, [Pyruvate dehydrogenase (acetyl-transferring)] kinase isozyme 2, mitochondrial (Homo sapiens, UniProt Q15119); assay: PDK Inhibition Assay; conditions: pH 7.5; 25 °C
[3] = target: T1, [Pyruvate dehydrogenase (acetyl-transferring)] kinase isozyme 2, mitochondrial; assay: Isothermal Titration Calorimetry (ITC); conditions: pH 7.5; 15 °C
Procedure: (§1) The PDK2 or Hsp90 N-terminal domain protein was dialyzed against 1 liter of thedialysis buffer containing 50 mM Tris-Cl, pH 7.5, 50 mM KCl, 1 mM MgCl2, and 0.5 mM β-mercaptoethanol.

[4] = target: T2, Heat shock protein HSP 90-alpha [1-236] (Homo sapiens, UniProt P07900); assay: Isothermal Titration Calorimetry (ITC); conditions: pH 7.5; 15 °C
T2 construct: 1-236
Procedure: as §1

Chain of [Pyruvate dehydrogenase (acetyl-transferring)] kinase isozyme 4, mitochondrial (Q16654 whole entry): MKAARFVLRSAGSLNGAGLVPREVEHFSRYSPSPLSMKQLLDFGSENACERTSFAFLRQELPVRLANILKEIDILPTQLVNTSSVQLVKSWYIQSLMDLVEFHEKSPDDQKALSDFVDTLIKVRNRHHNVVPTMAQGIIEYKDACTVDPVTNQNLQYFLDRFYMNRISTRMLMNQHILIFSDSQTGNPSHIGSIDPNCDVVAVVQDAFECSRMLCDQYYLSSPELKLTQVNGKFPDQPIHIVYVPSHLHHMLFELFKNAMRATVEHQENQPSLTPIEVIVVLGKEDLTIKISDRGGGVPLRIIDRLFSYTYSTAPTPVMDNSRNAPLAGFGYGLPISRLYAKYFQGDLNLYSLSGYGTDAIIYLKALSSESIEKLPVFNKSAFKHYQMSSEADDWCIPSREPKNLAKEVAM

| SMILES | IC50 [1] | IC50 [2] | Kd [3] | Kd [4] |
| --- | --- | --- | --- | --- |
| O=C(O)C(Cl)Cl [DCA] | 80 µM | 183 µM | – | – |
| Oc1ccc(-c2nnc(S)n2-c2cccc3ccccc23)c(O)c1 [Resorcinol analog, 1] | 0.28 µM | 3.82 µM | 6.76 µM | 0.025 µM |
